Patent US20250312365A1, “METHODS FOR INHIBITION OF SQUAMOUS CARCINOMA CELLS USING CERAMIDE MODULATORS” (The Trustees of Indiana University, priority 2024, published 2025)
“Also recorded” adds a separate entry of the source.

Columns and labels:
Format in all cases: cell-based, human
Vimentin = test: Western blot of Vimentin in OECM1 cells; settings: 24 h of treatment
Description: To determine the effect of PGDHC on cell markers involved in metastasis, the protein levels of p-STAT3, EMT markers, E-cadherin, N-cadherin, and Vimentin in OECM1 cells following in vitro exposure to PGDHC were determined by Western blot assay.

OECM1 cells = test: Untargeted metabolomic pathway analysis (LC/MS) in OECM1 cells; settings: 1 μg/ml for 6 h
Excerpt: Based on this analysis, at least 5 different cell survival metabolomic pathways, underlined in red were diminished in OSCC (OECM1 and SCC9), but not in healthy epithelial OBA9 cells in response to PGDHC. The 5 pathways were folate metabolism, arginine and proline metabolism, glycine and serine metabolism, de novo triacylglycerol biosynthesis, and mitrochondrial electron transport chain.
(§1) The plots in FIGS. 16A and 16B display the enriched pathways identified in the analysis, with their corresponding significance levels represented on the x-axis. The significance threshold (p<0.05) is denoted by the dashed line. […] Additionally, the color of the dots represents the enrichment, which indicates the extent to which the metabolites in the pathway were clustered amongst the compounds with the most positive fold-changes (positive enrichments), the most negative fold-changes (negative enrichments), or uniformly distributed across high and low fold-change compounds (enrichment values near 0.0). […] Polar and lipid metabolites were analyzed with hydrophilic interaction chromatography (HILIC/MS) and liquid chromatography (LC/MS), respectively. Mass spectrometry analysis was completed with a mass range of 67-1500 Da with 1 scan/sec and a mass resolution of 120,000 in both positive and negative ionization mode. The MS/MS mass-spectrometry data were acquired in a data-dependent iterative fashion with a 1.3 m/z isolation window. Based upon this metabolomic analysis, phosphoglycerol dihydroceramide (PGDHC) isolated from Porphyromonas gingivalis inhibits metabolomic pathways essential for cell survival in oral squamous cell carcinoma cells (OSCC).
The Warburg effect is a metabolic phenomenon observed in many cancer cells, where the cells preferentially use glycolysis metabolism to produce energy instead of oxidative phosphorylation. The Warburg effect is a hallmark of rapid cancer cell growth. Therefore, we evaluated whether PGDHC altered Warburg effect in OSCM1 and SCC9 oral squamous cell carcinoma cells (FIG. 17A), but not healthy epithelial OBA9 cells (FIG. 17B), in vitro. Cells were stimulated with PGDHC (1 μg/ml) for 6 h and the untargeted metabolomic analysis was performed using LC/MS mass-spectrometry. Polar and lipid metabolites were analyzed with HILIC/MS and LC/MS, respectively. Mass spectrometry analysis was completed with a mass range of 67-1500 Da with 1 scan/sec and a mass resolution of 120,000 in both positive and negative ionization mode. MS/MS data were acquired in a data-dependent iterative fashion with a 1.3 m/z isolation window.
Based upon the impact of PGDHC on the Warburg effect in OSCC cells, we further analyzed the levels of cancer-survival metabolites adenosine triphosphate (ATP) and glucose in the OECM1, SCC9, and OBA9 cells described in Example 11. As shown in FIG. 18A and FIG. 18B, PGDHC altered the levels of both ATP and glucose in OECM1 and SCC9 oral squamous cell carcinoma cells, but not OBA9. The metabolites levels are presented as the relative abundance based on the data presented in FIG. 16 and FIG. 17 heat maps.

SCC9 cells = test: Untargeted metabolomic pathway analysis (LC/MS) in SCC9 cells; settings: 1 μg/ml for 6 h
Excerpt: as §1, with “(OSCC). […]” for “(OSCC).”
SCC9 were exposed to a15:0-i15:0PE (1 μg/ml) for 6 h in vitro. […] The significance threshold (p<0.05) is denoted by the grey dashed line. […] Additionally, the color of the dots represents the enrichment, which indicates the extent to which the metabolites in the pathway were clustered amongst the compounds with the most positive fold-changes (positive enrichments), the most negative fold-changes (negative enrichments), or uniformly distributed across high and low fold-change compounds (enrichment values near 0.0).

phosphoglycerol dihydroceramide [PGDHC]
protein level of Vimentin in OECM1 cells (Vimentin): little to no detectable effect
Warburg effect in OECM1 cells (OECM1 cells): altered
arginine and proline metabolism in OECM1 cells (OECM1 cells): diminished accumulation; also recorded: inhibits
de novo triacylglycerol biosynthesis in OECM1 cells (OECM1 cells): diminished accumulation; also recorded: inhibits
folate metabolism in OECM1 cells (OECM1 cells): diminished accumulation; also recorded: inhibits
glycine and serine metabolism in OECM1 cells (OECM1 cells): diminished accumulation; also recorded: inhibits
level of ATP in OECM1 cells (relative abundance) (OECM1 cells): altered
level of glucose in OECM1 cells (relative abundance) (OECM1 cells): altered
mitochondrial electron transport in OECM1 cells (OECM1 cells): diminished accumulation; also recorded: inhibits
Warburg effect in SCC9 cells (SCC9 cells): altered
arginine and proline metabolism in SCC9 cells (SCC9 cells): diminished accumulation; also recorded: inhibits
de novo triacylglycerol biosynthesis in SCC9 cells (SCC9 cells): diminished accumulation; also recorded: inhibits
folate metabolism in SCC9 cells (SCC9 cells): diminished accumulation; also recorded: inhibits
glycine and serine metabolism in SCC9 cells (SCC9 cells): diminished accumulation; also recorded: inhibits
level of ATP in SCC9 cells (relative abundance) (SCC9 cells): altered
level of glucose in SCC9 cells (relative abundance) (SCC9 cells): altered
mitochondrial electron transport in SCC9 cells (SCC9 cells): diminished accumulation; also recorded: inhibits
